{"source": "paper PMC11876601", "about": "(Molecular Systems Biology, 2025)", "key": {"[1]": {"tested_on": "nine PDAC patient-derived organoids (PDOs)", "experiment": "PDO viability assay (CellTiter-Glo, 72 h), panel", "format": "cell-based", "settings": "Homo sapiens; range among the nine PDOs; read-out: EC50 (monotherapy)", "protocol": "Primary patient-derived PDAC organoid (PDO) experiments were performed in the laboratories of Prof. Maximilian Reichert (University Hospital of the TU Munich, Germany, PDO set 1: B250, B535, B678) and Prof. Jens T. Siveke (University Hospital Essen, Germany; PDO set 2: UME008, UME012, UME051, UME053, UME060, UME061). PDOs were generated from surgical resection, EUS-guided fine needle biopsy (EUS-FNB), or ascites (Appendix Table S2). Surgical specimens were first minced with a sterile scalpel and subsequently washed with Anti-Anti solution and washing medium (PDO set 1), or vice versa (PDO set 2; Appendix Table S3). Biopsy samples were directly washed with an Anti-Anti solution and washing medium. Samples were digested using 1 ml of digestion medium at 37 °C while shaking, and the enzymatic reaction was stopped by adding 15 ml of washing medium (Appendix Table S3). […]\nFor viability assays in PDOs, confluent organoids were removed from medium, and Matrigel was dissolved by adding 200 μl (PDO set 1) or 2 ml (PDO set 2) of Cell Recovery Solution (Corning), and additionally 500 μl of DPBS (PDO set 1 only). […] After 72 h, cell viability was measured using the CellTiter-Glo Luminescent Cell Viability Assay (Promega) diluted 1:5 in the final volume of the well. […]"}, "MAP3K12": {"tested_on": "MAP3K12", "parameters": "method as in Reinecke et al. (2023)", "settings": "MAP3K12, 5 cell line mix lysate, Kinobeads ε, ref Reinecke et al. (2023), cited from earlier work"}, "BCR": {"target": "BCR", "settings": "5 cell line mix lysate, Kinobeads ε, ref Reinecke et al. (2023), cited from earlier work"}, "RPS6KA3": {"tested_on": "RPS6KA3", "parameters": "method as in Reinecke et al. (2023)", "settings": "RPS6KA3, 5 cell line mix lysate, Kinobeads ε, ref Reinecke et al. (2023), cited from earlier work"}, "PHKA2": {"tested_on": "PHKA2", "parameters": "method as in Reinecke et al. (2023)", "settings": "PHKA2, 5 cell line mix lysate, Kinobeads ε, ref Reinecke et al. (2023), cited from earlier work"}, "TAOK1": {"tested_on": "TAOK1", "parameters": "method as in Reinecke et al. (2023)", "settings": "TAOK1, 5 cell line mix lysate, Kinobeads ε, ref Reinecke et al. (2023), cited from earlier work"}, "WEE1": {"tested_on": "WEE1", "settings": "WEE1, 5 cell line mix lysate, Kinobeads ε, ref Reinecke et al. (2023), cited from earlier work"}, "PTK2B": {"target": "PTK2B", "parameters": "method as in Reinecke et al. (2023)", "settings": "5 cell line mix lysate, Kinobeads ε, ref Reinecke et al. (2023), cited from earlier work"}}}
{"molecule": "Nc1ccn([C@@H]2O[C@H](CO)[C@@H](O)C2(F)F)c(=O)n1", "note": "[GEM, Gemcitabine]", "values": [{"measurement": "EC50", "setting": "[1]", "value": "3 to 285", "unit": "nM"}]}
{"molecule": "COc1cc(N2CCC(N3CCN(C)CC3)CC2)ccc1Nc1ncc(Cl)c(Nc2ccccc2P(C)(C)=O)n1", "note": "[Brigatinib]", "values": [{"measurement": "EC50", "setting": "MAP3K12", "value": 1040, "unit": "nM"}, {"measurement": "pKDapp", "setting": "MAP3K12", "value": 6.25}, {"measurement": "Kd", "setting": "MAP3K12; read-out: KDapp", "value": 563, "unit": "nM"}, {"measurement": "Kd", "setting": "BCR; read-out: KDapp", "value": 504, "unit": "nM"}, {"measurement": "EC50", "setting": "BCR", "value": 1050, "unit": "nM"}, {"measurement": "pKDapp", "setting": "BCR", "value": 6.30}, {"measurement": "EC50", "setting": "RPS6KA3", "value": 162, "unit": "nM"}, {"measurement": "pKDapp", "setting": "RPS6KA3", "value": 6.93}, {"measurement": "Kd", "setting": "RPS6KA3; read-out: KDapp", "value": 118, "unit": "nM"}, {"measurement": "EC50", "setting": "PHKA2", "value": 19.7, "unit": "nM"}, {"measurement": "pKDapp", "setting": "PHKA2", "value": 7.71}, {"measurement": "Kd", "setting": "PHKA2; read-out: KDapp", "value": 19.7, "unit": "nM"}, {"measurement": "EC50", "setting": "TAOK1", "value": 847, "unit": "nM"}, {"measurement": "pKDapp", "setting": "TAOK1", "value": 6.25}, {"measurement": "Kd", "setting": "TAOK1; read-out: KDapp", "value": 563, "unit": "nM"}, {"measurement": "EC50", "setting": "WEE1", "value": 1950, "unit": "nM"}, {"measurement": "pKDapp", "setting": "WEE1", "value": 5.91}, {"measurement": "Kd", "setting": "WEE1; read-out: KDapp", "value": 1240, "unit": "nM"}, {"measurement": "Kd", "setting": "PTK2B; read-out: KDapp", "value": 5.14, "unit": "nM"}, {"measurement": "EC50", "setting": "PTK2B", "value": 12.4, "unit": "nM"}, {"measurement": "pKDapp", "setting": "PTK2B", "value": 8.29}]}
